Laboratory results taken from patent US9273095B2, “Antibiotic peptide and preparation method therefor and application therefor” (priority 2011, dated 2016).
≈ marks a conversion by molar mass, not a printed value. Read-outs that look alike come from different tables or passages of the source. Non-standard residues stand in square brackets, D forms with d. Residues, ends and D or L forms follow the SMILES beside them.

What was measured:
[1] = tested on: Acinetobacter calcoaceticus; assay: microbe, parasite or virus in culture; type: cell-based
Protocol: (§1) The experimental strains are 37 standard strains preserved in lab and clinical isolated bacteria, including drug-resistant bacteria and quality-control bacteria selecting Staphylococcus aureus ATCC29213, Enterococcus faecalis ATCC29212, Escherichia coli ATCC25922, Pseudomonas aeruginosa ATCC27853 and klebsiella pneumoniae ATCC700603.
(§2) (1) Sensitivity test is conducted with two-fold agar dilution method and Denlay multipoint inoculator. Test bacteria are cultured with nutrient broth and brain heart infusion.
(§3) (2) The drug is double diluted into different concentration with MH broth after dissolved and then placed in the plate respectively.
(§4) (3) After dissolved, MH agar culture medium are injected into the plate with drug quantitatively and mixed to make the final concentration of drug are 0.03, 0.06, 0.125, . . . , 128 μg/ml respectively.
(§5) (4) After solidification of the culture medium in the plate, test bacteria (10^4CFU/point) are inoculated by multipoint inoculator and cultured for 18 hours at constant 35° C. Then observe the results.

Enterobacter aerogenes = assay: microbe, parasite or virus in culture; type: cell-based
Protocol: as §1, §2, §3, §4, §5

Enterobacter cloacae = assay: microbe, parasite or virus in culture; type: cell-based
Protocol: as §1, §2, §3, §4, §5

Escherichia coli = assay: microbe, parasite or virus in culture; type: cell-based; details: Escherichia coli
Protocol: as §1, §2, §3, §4, §5

Feilaoti citrobacter = assay: microbe, parasite or virus in culture; type: cell-based
Protocol: as §1, §2, §3, §4, §5

Proteus vulgaris = assay: microbe, parasite or virus in culture; type: cell-based
Protocol: as §1, §2, §3, §4, §5

Pseudomonas aeruginosa = assay: microbe, parasite or virus in culture; type: cell-based; details: Pseudomonas aeruginosa
Protocol: as §1, §2, §3, §4, §5

Salmonella typhimurium = assay: microbe, parasite or virus in culture; type: cell-based
Protocol: as §1, §2, §3, §4, §5

Serratia marcescens = assay: microbe, parasite or virus in culture; type: cell-based
Protocol: as §1, §2, §3, §4, §5

Shigella flexneri = assay: microbe, parasite or virus in culture; type: cell-based
Protocol: as §1, §2, §3, §4, §5

Shigella sonnei = assay: microbe, parasite or virus in culture; type: cell-based; details: Shigella sonnei strains 51592
Protocol: as §1, §2, §3, §4, §5

Shigella = assay: microbe, parasite or virus in culture; type: cell-based
Protocol: as §1, §2, §3, §4, §5

Staphylococcus aureus = assay: microbe, parasite or virus in culture; type: cell-based
Protocol: as §1, §2, §3, §4, §5

[2] = tested on: Staphylococcus epidermidis; assay: microbe, parasite or virus in culture; type: cell-based
Protocol: as §1, §2, §3, §4, §5

Typhoid bacillus H901 = assay: microbe, parasite or virus in culture; type: cell-based
Protocol: as §1, §2, §3, §4, §5

klebsiella pneumoniae = assay: microbe, parasite or virus in culture; type: cell-based; details: Klebsiella pneumoniae
Protocol: as §1, §2, §3, §4, §5

Enterococcus faecalis = assay: organism not typed; type: cell-based
Protocol: as §1, §2, §3, §5

[3] = RP-HPLC temperature profiling: hydrophobicity and self-association; type: physicochemical
Protocol: Peptides are analyzed on an Agilent 1200 series liquid chromatograph (Little Falls, Del.). Runs are performed on a Zorbax 300 SB-C8 column (150×4.6 mm I.D.; 5 μm particle size, 300 Å pore size) from Agilent Technologies using linear AB gradient (1% acetonitrile/min) and a flow rate of 1 ml/min, where solvent A is 0.05% aqueous TFA, pH 2 and solvent B is 0.05% TFA in acetonitrile.
We further use temperature profiling during RP-HPLC to determine the self-association ability of various analogs of PL-13 (SEQ ID NO: 1) which would occur through interaction of the non-polar faces of these amphipathic peptides α-helices. We use 50% TFE aqueous acetonitrile and hydrophobic conditions in the reversed-phase column (hydrophobic stationary phase and the hydrophobic organic solvent in the mobile phase) since the hydrophobic environment of a reversed-phase column also could induce α-helical structure. Since its introduction, the technique of RP-HPLC temperature profiling has been applied on several types of molecules, including cyclic β-sheet peptides, monomeric α-helices and α-helices that dimerize, as well as α-helices that dimerize to form coiled-coils. Although peptides are eluted from a reversed-phase column mainly by an adsorption/desorption mechanism, even a peptide strongly bound to a hydrophobic stationary phase will partition between the matrix and the mobile phase when the acetonitrile content becomes high enough during gradient elution. In summary, the mechanism is based on four assumptions: (i) at low temperature, just as an amphipathic α-helical peptide is able to dimerize in aqueous solution (through its hydrophobic, non-polar face), it will dimerize in solution during partitioning in reversed-phase chromatography; (ii) at higher temperatures, the monomer-dimer equilibrium favors the monomer as the dimer is disrupted; (iii) at sufficiently high temperatures, only monomer is present in solution; and (iv) peptide is always bound in its monomeric helical form to the hydrophobic stationary phase, i.e., the dimer can only be present in solution and disruption of the dimer is required for rebinding to the RP-HPLC matrix.
([θ]222=−3,950). Since peptide C is a monomeric random coil peptide in both aqueous and hydrophobic media, its retention behavior over the temperature range 5-80° C. represents only general temperature effects on peptide retention behavior, i.e., a linear decrease in peptide retention time with increasing temperature due to greater solute diffusivity and enhanced mass transfer between the stationary and mobile phases at higher temperatures. Thus, after normalization to the retention times of peptide C, the retention behavior of the peptides only represents peptide self-association ability. Note that the higher the PA value, the greater the self-association ability. The order of peptide self-association ability of the three pairs of peptide enantiomers is identical to the order of peptide hydrophobicity. Apart from the decrease in retention time due to the general temperature effects noted above, destruction of the α-helix will also occur with increasing temperature, resulting in reduced retention times as the peptides become increasingly random coils.
The retention time data for the peptides is shown in Table 6 which records retention times at 5° C., the maximal retention times and retention times at 80° C. during the temperature profiling. Temperatures of 5-80° C. are the lower and upper temperature limits of temperature profiling in RP-HPLC, representing polymerization of the peptides at 5° C. and the monomerization of peptides at 80° C. due to denaturation of peptides by high temperature and dissociation of the polymers. The maximal retention times represent the threshold points at which peptides totally transform from polymeric to monomeric form. […]

[4] = 08-52(MRSA) Methicillin-resistant staphylococcus aureus
[5] = 06-71 (VRE) Vancomycin-resistant Enterococci, read-out: MIC

C[C@H]1COc2c(N3CCN(C)CC3)c(F)cc3c(=O)c(C(=O)O)cn1c23 [Levofloxacin, levofloxacin, reference compound]
MIC ([1]; Acinetobacter calcoaceticus, Acinetobacter calcoaceticus25001): 0.1 µM (≈ 0.0361 µg/mL)
MIC (Enterobacter aerogenes; Klebsiella aerogenes, Enterobacter aerogenes 45102): < 0.02 µM
MIC (Enterobacter cloacae; Enterobacter cloacae 45301): 0.1 µM (≈ 0.0361 µg/mL)
MIC (Escherichia coli; 08-5 (ESBLs) Extended Spectyumβ-lactamase): 76.9 µM (≈ 27.8 µg/mL)
MIC (Escherichia coli; 272(TEM-88)): < 0.7 µM
MIC (Escherichia coli; 274 (TEM-15)): 0.2 µM (≈ 0.0723 µg/mL)
MIC (Escherichia coli; 276 (TEM-52)): < 0.2 µM
MIC (Escherichia coli; ATCC25922, Escherichia coli ATCC 25922): 0.14 µM (≈ 0.0506 µg/mL)
MIC (Escherichia coli; strain 26 (listed under Escherichia coli)): < 0.7 µM
MIC (Feilaoti citrobacter; Feilaoti citrobacter 48001): 0.1 µM (≈ 0.0361 µg/mL)
MIC (Proteus vulgaris; Proteus vulgaris 56): < 0.007 µM
MIC (Pseudomonas aeruginosa; Pseudomonas aeruginosa TCC27853): 1.2 µM (≈ 0.434 µg/mL)
MIC (Pseudomonas aeruginosa; strain 17 (listed under Pseudomonas aeruginosa)): 0.7 µM (≈ 0.253 µg/mL)
MIC (Salmonella typhimurium; Salmonella enterica, Salmonella typhimurium): < 0.02 µM
MIC (Serratia marcescens; Serratia marcescens 41002): 0.1 µM (≈ 0.0361 µg/mL)
MIC (Shigella flexneri): 0.1 µM (≈ 0.0361 µg/mL)
MIC (Shigella sonnei): 0.1 µM (≈ 0.0361 µg/mL)
MIC (Shigella): < 0.02 µM
MIC (Staphylococcus aureus; 08-49(MSSA) Meticillin susceptible staphylococcus aureus): 0.3 µM (≈ 0.108 µg/mL)
MIC (Staphylococcus aureus; [4]): 76.9 µM (≈ 27.8 µg/mL)
MIC (Staphylococcus aureus; Staphylococcus aureus ATCC25923): 0.3 µM (≈ 0.108 µg/mL)
MIC (Staphylococcus aureus; Staphylococcus aureus ATCC29213): 0.6 µM (≈ 0.217 µg/mL)
MIC (Staphylococcus aureus; strain 15 (listed under Staphylococcus aureus)): 0.3 µM (≈ 0.108 µg/mL)
MIC ([2]; 08-17 (MSSE) Meticillin susceptible staphylococcus epidermidis): 1.2 µM (≈ 0.434 µg/mL)
MIC ([2]; 08-18 (MRSE) Methicillin-resistant staphylococcus epidermidis): 55.5 µM (≈ 20.1 µg/mL)
MIC ([2]; ATCC 12228 / MRSE, (MRSE) Methicillin-resistant Staphylococcus epidermidis ATCC12228): 0.3 µM (≈ 0.108 µg/mL)
MIC (Typhoid bacillus H901): < 0.02 µM
MIC (klebsiella pneumoniae; 08-2 (ESBLs) (listed under klebsiella pneumoniae)): 76.9 µM (≈ 27.8 µg/mL)
MIC (klebsiella pneumoniae; ATCC700603, klebsiella pneumoniae ATCC700603): 1.2 µM (≈ 0.434 µg/mL)
MIC (klebsiella pneumoniae; strain 7 (listed under klebsiella pneumoniae)): < 16 µM
MIC (Enterococcus faecalis; [5]): 2.4 µM (≈ 0.867 µg/mL)
MIC (Enterococcus faecalis; Enterococcus faecalis, ATCC29212, Enterococcus faecalis ATCC29212): 1.2 µM (≈ 0.434 µg/mL)
MIC (Enterococcus faecalis; Enterococcus faecalis, HH22* (AMEs) Aminoglycoside-modifying enzyme): 1.2 µM (≈ 0.434 µg/mL)
MIC (Enterococcus faecalis; Enterococcus faecalis, strain 06-7 (listed under Enterococcus faecalis)): 19.2 µM (≈ 6.95 µg/mL)

CC(=O)N[C@H](Cc1ccccc1)C(=O)N[C@H](CCCCN)C(=O)N[C@H](CCCCN)C(=O)N[C@H](CC(C)C)C(=O)N[C@H](CCCCN)C(=O)N[C@H](CCCCN)C(=O)N[C@H](CC(C)C)C(=O)N[C@H](Cc1ccccc1)C(=O)N[C@H](CO)C(=O)N[C@H](CCCCN)C(=O)N[C@H](CC(C)C)C(=O)N[C@H](Cc1c[nH]c2ccccc12)C(=O)N[C@H](CC(N)=O)C(=O)N[C@H](Cc1c[nH]c2ccccc12)C(=O)N[C@H](CCCCN)C(N)=O [PL-18] (Ac-[dF][dK][dK][dL][dK][dK][dL][dF][dS][dK][dL][dW][dN][dW][dK]-NH2)
tR(min) 5° C. ([3]; RP-HPLC temperature profiling, 5° C.): 35.75 min
tR(min) 80° C. ([3]; RP-HPLC temperature profiling, 80° C.): 33.37 min
PA (min), association parameter ([3]; maximal normalized retention time difference within 5-80° C., self-association ability): 0.56 min
tR(min) Max ([3]; maximal retention time during temperature profiling 5-80° C.): 35.75 min
ΔtR(X-Peptide C)(min) 5° C. ([3]; retention time difference to control peptide C at 5° C., relative hydrophobicity): 13.19 min
ΔtR(X-Peptide C)(min) 80° C. ([3]; retention time difference to control peptide C at 80° C., relative hydrophobicity): 13.45 min
Hydrophobicity tR5 ([3]; retention time in RP-HPLC at pH 2, 5° C.): 35.75 min
Hydrophobicity tR80 ([3]; retention time in RP-HPLC at pH 2, 80° C.): 33.37 min
MIC [1]: 1.7 µM (≈ 3.46 µg/mL)
MIC (Enterobacter aerogenes): 0.04 µM (≈ 0.0814 µg/mL)
MIC (Enterobacter cloacae): 0.04 µM (≈ 0.0814 µg/mL)
MIC (Feilaoti citrobacter): 0.3 µM (≈ 0.611 µg/mL)
MIC (Proteus vulgaris): 5.3 µM (≈ 10.8 µg/mL)
MIC (Salmonella typhimurium; murium): 0.3 µM (≈ 0.611 µg/mL)
MIC (Serratia marcescens): 0.04 µM (≈ 0.0814 µg/mL)
MIC (Shigella sonnei): 0.04 µM (≈ 0.0814 µg/mL)
MIC (Shigella): 1.3 µM (≈ 2.65 µg/mL)
MIC (Staphylococcus aureus): 0.7 µM (≈ 1.42 µg/mL)
MIC (Staphylococcus aureus; [4]): 2.7 µM (≈ 5.5 µg/mL)
MIC [2]: 0.7 µM (≈ 1.42 µg/mL)
MIC (Typhoid bacillus H901): 0.3 µM (≈ 0.611 µg/mL)
MIC (Enterococcus faecalis; [5]): 1.3 µM (≈ 2.65 µg/mL)
MIC (Enterococcus faecalis; HH22* (AMEs) Aminoglycoside-modifying enzyme, read-out: MIC): 1.7 µM (≈ 3.46 µg/mL)
